Where two headings read alike, the source gives them in different places. Residues, ends and D or L forms follow the SMILES beside them.
Target: T1, glutaminase (brain membranes) (Rattus norvegicus, UniProt P13264)
T1 construct: Membranes are prepared by homogenization of brain tissue in 330 mM sucrose; from tissue; host or cells: rat brain, crude membranes (17000 G pellet)
T1 sequence (P13264 73-674 limits assumed): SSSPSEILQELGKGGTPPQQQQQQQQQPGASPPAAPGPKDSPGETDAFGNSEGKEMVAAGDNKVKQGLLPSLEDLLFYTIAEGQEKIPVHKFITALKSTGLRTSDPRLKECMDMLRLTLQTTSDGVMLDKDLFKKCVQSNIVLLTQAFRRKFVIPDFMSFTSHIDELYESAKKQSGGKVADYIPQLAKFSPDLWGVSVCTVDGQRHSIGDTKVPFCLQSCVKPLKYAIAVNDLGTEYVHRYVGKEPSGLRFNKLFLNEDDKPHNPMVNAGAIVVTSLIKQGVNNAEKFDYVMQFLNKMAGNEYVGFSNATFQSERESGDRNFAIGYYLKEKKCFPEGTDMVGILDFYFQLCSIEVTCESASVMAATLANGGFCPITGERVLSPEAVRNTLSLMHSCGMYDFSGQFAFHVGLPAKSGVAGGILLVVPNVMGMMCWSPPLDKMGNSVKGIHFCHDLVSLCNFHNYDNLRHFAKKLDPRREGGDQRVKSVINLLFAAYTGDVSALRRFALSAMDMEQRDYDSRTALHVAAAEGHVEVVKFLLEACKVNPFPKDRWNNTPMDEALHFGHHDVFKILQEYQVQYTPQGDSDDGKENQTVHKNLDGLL
Assay: biochemical
Set-up: Glutaminase Activity: unit not given here
Conditions: for Glutaminase Activity: brain membranes

[1] = read-out: glutaminase activity, phosphate-containing compounds

SMILES: CC(CC(N)C(=O)O)C(=O)O (racemic) [(±)-threo-4-methylglutamate]
- activity at 3300 µM (read-out: Glutaminase Activity): 170%
- activity at 9000 µM (read-out: Glutaminase Activity): 100%

SMILES: CC(=O)NC(CCC(=O)O)C(=O)O (racemic) [N-acetyl-DL-glutamate]
- activity at 3300 µM (read-out: Glutaminase Activity): 92 ± 10%
- activity at 9000 µM (read-out: Glutaminase Activity): 75 ± 10%

SMILES: CNC(CCC(=O)O)C(=O)O (racemic) [N-methyl-DL-glutamate]
- activity at 3300 µM (read-out: Glutaminase Activity): 102%
- activity at 9000 µM (read-out: Glutaminase Activity): 124%

SMILES: CC(N)(CCC(=O)O)C(=O)O (racemic) [α-methyl-DL-glutamate]
- activity at 3300 µM (read-out: Glutaminase Activity): 76%

SMILES: C=C(CC(N)C(=O)O)C(=O)O (racemic) [γ-methylene-DL-glutamate]
- activity at 3300 µM (read-out: Glutaminase Activity): 105 ± 10%

SMILES: C[C@@H](CC(=O)O)[C@H](N)C(=O)O (relative stereo) [(±)-erythro-3-methylglutamate]
- glutaminase inhibition (in words): moderate inhibition
- activity at 3300 µM (read-out: Glutaminase Activity): 34%
- activity at 9000 µM (read-out: Glutaminase Activity): 18%

SMILES: C[C@H](CC(=O)O)[C@H](N)C(=O)O (relative stereo) [(±)-threo-3-methylglutamate]
- activity at 3300 µM (read-out: Glutaminase Activity): 91%
- activity at 9000 µM (read-out: Glutaminase Activity): 7%

SMILES: NC(CC(N)C(=O)O)C(=O)O (centres unmarked) [2,4-diaminopentanedioic acid]
- activity at 3300 µM (read-out: Glutaminase Activity): 82 ± 7%
- activity at 9000 µM (read-out: Glutaminase Activity): 103 ± 25%

SMILES: CCOP(=O)(OCC)c1ccc(P(=O)(OCC)OCC)s1 [2,5-bis(diethoxyphosphoryl) thiophene]
- activity at 3000 µM [1]: 75 to 90%
- activity at 9000 µM [1]: 70 to 85%

SMILES: O=C(O)C(CC=C1c2ccccc2C=Cc2ccccc21)C(=O)O [2-(2-dibenzo(a,d)cyclohepten-5-ylidene)-ethyl malonic acid]
- dependence of glutaminase inhibition on phosphate level and concentration (in words): inhibition was reduced in the presence of high phosphate levels; the effect was particularly evident
- Glutaminase Activity (300 µM): 83 ± 7
- Glutaminase Activity (1000 µM): 61 ± 4
- activity at 100 µM (read-out: Glutaminase Activity): 86 ± 10%
- activity at 300 µM (read-out: Glutaminase Activity): 75 ± 5%
- activity at 1000 µM (read-out: Glutaminase Activity): 44 ± 2%

SMILES: C=CCCCCCCCCCC(C(=O)O)C(=O)O [2-undec-10-enyl malonate]
- Glutaminase Activity (100 µM): 89 ± 6
- Glutaminase Activity (300 µM): 87 ± 2
- activity at 100 µM (read-out: Glutaminase Activity): 96 ± 7%
- activity at 300 µM (read-out: Glutaminase Activity): 67 ± 2%

SMILES: N[C@@H](CC(F)C(=O)O)C(=O)O (some centres unmarked) [4-fluoroglutamic acid]
- IC50: 500 µM
- activity at 330 µM (read-out: Glutaminase Activity): 67 ± 7%
- activity at 1000 µM (read-out: Glutaminase Activity): 30 ± 9%
- activity at 3300 µM (read-out: Glutaminase Activity): 4.2 ± 1.3%

SMILES: CC[C@](N)(CCC(=O)O)C(=O)O [(2S)-α-ethyl glutamic acid]
- activity at 3300 µM (read-out: Glutaminase Activity): 95%

SMILES: C[C@H](N)C(=O)N[C@@H](CCC(=O)O)C(=O)O [Ala--Glu] (H-Ala-Glu-OH)
- activity at 3300 µM (read-out: Glutaminase Activity): 117%
- activity at 9000 µM (read-out: Glutaminase Activity): 115%

SMILES: N=C(N)NCCC[C@H](N)C(=O)N[C@@H](CCC(=O)O)C(=O)O [Arg--Glu] (H-Arg-Glu-OH)
- activity at 3300 µM (read-out: Glutaminase Activity): 123%
- activity at 9000 µM (read-out: Glutaminase Activity): 118%

SMILES: N[C@@H](CC(=O)O)C(=O)N[C@@H](CCC(=O)O)C(=O)O [Asp--Glu] (H-Asp-Glu-OH)
- glutaminase inhibition (in words): moderate inhibition
- activity at 3300 µM (read-out: Glutaminase Activity): 77%
- activity at 9000 µM (read-out: Glutaminase Activity): 32%

SMILES: CC(C)(C)OC(=O)N[C@@H](CCC(=O)O)C(=O)O [BOC--Glu--OH]
- activity at 3300 µM (read-out: Glutaminase Activity): 101%
- activity at 9000 µM (read-out: Glutaminase Activity): 100%

SMILES: CC(C)(C)OC(=O)NCC(=O)NC(CC(F)C(=O)O)C(=O)O (centres unmarked) [BOC-glycyl-4-fluoroglutamate]
- activity at 3300 µM (read-out: Glutaminase Activity): 52%
- activity at 9000 µM (read-out: Glutaminase Activity): 15%

SMILES: N[C@@H](CCC(=O)O)C(=O)N[C@@H](CCC(=O)O)C(=O)O [Glu--Glu] (H-Glu-Glu-OH)
- activity at 3300 µM (read-out: Glutaminase Activity): 130%
- activity at 9000 µM (read-out: Glutaminase Activity): 141%

SMILES: N[C@@H](CCC(=O)O)C(=O)NCC(=O)O [Glu--Gly] (H-Glu-Gly-OH)
- activity at 3300 µM (read-out: Glutaminase Activity): 94%
- activity at 9000 µM (read-out: Glutaminase Activity): 95%

SMILES: NCCCC[C@H](NC(=O)[C@@H](N)CCC(=O)O)C(=O)O [Glu--Lys] (H-Glu-Lys-OH)
- activity at 3300 µM (read-out: Glutaminase Activity): 96%
- activity at 9000 µM (read-out: Glutaminase Activity): 93%

SMILES: C[C@@H](O)[C@H](NC(=O)[C@@H](N)CCC(=O)O)C(=O)O [Glu--Thr] (H-Glu-Thr-OH)
- activity at 3300 µM (read-out: Glutaminase Activity): 124%
- activity at 9000 µM (read-out: Glutaminase Activity): 123%

SMILES: CC(C)[C@H](NC(=O)[C@@H](N)CCC(=O)O)C(=O)O [Glu--Val] (H-Glu-Val-OH)
- activity at 3300 µM (read-out: Glutaminase Activity): 122%
- activity at 9000 µM (read-out: Glutaminase Activity): 116%

Source: patent US6310093A (priority 1998, dated 2001)
